Measurements reported in patent publication CN107475146A, “一种链霉菌及其代谢产物粉蝶霉素类化合物在抗肾癌中的应用” (priority 2017, dated 2017).

How the values were obtained:
Format in all cases: cell-based
[1] = test system: 786-O human renal cancer cell line [786-O人肾癌细胞株]; experiment: CCK-8 assay, inhibition of proliferation of 786-O human renal cancer cells
[2] = test system: OS-RC-2 human renal cancer cell line [OS-RC-2人肾癌细胞株]; experiment: CCK-8 assay, inhibition of proliferation of OS-RC-2 human renal cancer cells; conditions: for IC50: CCK-8, 72 h
[3] = test system: 786-O and ACHN cells [786-O和ACHN细胞]; experiment: CCK-8 assay, 786-O and ACHN human renal cancer cells, result stated jointly for both lines
[4] = test system: ACHN human renal cancer cell line [ACHN人肾癌细胞株]; experiment: CCK-8 assay, inhibition of proliferation of ACHN human renal cancer cells; conditions: 72 h

Compound	IC50 ([1]; 72 h) [µM]	IC50 [2] [µM]	further results
Piericidin C2 [化合物3]	> 100	22.4	
Piericidin s3a [化合物6]	> 100	30.9	inhibitory activity ([2]; in words): 具有抑制活性; selectivity ([3]; in words): 具有一定的选择性
IT-143-B [化合物5]	72	42.1	
Piericidin A2 [化合物2]	50.3	16.4	IC50 [4]: 14.2 µM
IT-143-A [compound 4]	61.1	20.5	
CC=C(C)C(O)C(C)C=C(C)C=CCC(C)=CCc1nc(OC)c(OC)c(O)c1C (centres unmarked) [化合物1, Piericidin A]			IC50 ([1]; Homo sapiens, 786-0, 72 h): 29.9 µM; IC50 ([2]; Homo sapiens): 5.16 µM; IC50 ([4]; Homo sapiens): 0.4 µM; IC50 ([3]; Homo sapiens, joint range over compounds 1, 2, 4 and 5, CCK-8, 72 h): 0.4 to 72 µM
